Assay: Release of benzoic acid from pie-shaped-compartment dosage form, UV 226 nm
Type: physicochemical
Details: PEG8000 flat tablet with pie shaped compartment; pH 8 Na2HPO4 solution, 37° C., 100 rpm; FIG. 18C
Method: The release profile of the benzoic acid from the dosage form was measured as the following method. Na2HPO4 solution of pH 8 was prepared as dissolvent of benzoic acid. Benzoic acid solution of 120 μg/mL was serially diluted to 30 μg/mL, 15 μg/m, 7.5 μg/m, 3.75 μg/mL, and 1.875 μg/mL solutions, whose absorbance at 226 nm was measured using a UV spectrophotometer. The numbers obtained were treated with linear regression to generate a standard curve of benzoic acid concentration with the formula y=0.0599x+0.0347. To measure the released amount of benzoic acid, the dosage form was dissolved in degassed pH 8 Na2HPO4 solution at 37° C.±0.5° C. and […] at 100 rpm. 5 mL solution was collected from the solution at each time point to measure the concentration of benzoic acid with 5 mL dissolvent added back to the solution. The collected solution was filtered through 0.45 um membrane before transferred to an UV spectrophotometer for measuring the absorbance at 226 nm. The percentage of benzoic acid released was calculated using the following formula: […]
Wherein Cn means concentrate measured, Vtmeans total solution volume,
Vs means sample volume, Qbenzoic acid means amout of benzoic acid in the dosage form

Q: With `O=C(O)c1ccccc1` [benzoic acid, Benzoic acid] as the compound, how does the “release profile of the benzoic acid” value read?
A: The value was “matches a model profile”.

From US11278499B2, “Oral drug dosage form comprising various release profiles” (Triastek, Inc., priority 2015, dated 2022)
